In patent US20150274664A1 (MERCK SHARP & DOHME CORP., priority 2012, published 2015):

Target: T1, human GPR119 (Homo sapiens, UniProt Q8TDV5)
T1 construct: expressed in transfected cells; host or cells: HEK293
T1 sequence (Q8TDV5 1-335): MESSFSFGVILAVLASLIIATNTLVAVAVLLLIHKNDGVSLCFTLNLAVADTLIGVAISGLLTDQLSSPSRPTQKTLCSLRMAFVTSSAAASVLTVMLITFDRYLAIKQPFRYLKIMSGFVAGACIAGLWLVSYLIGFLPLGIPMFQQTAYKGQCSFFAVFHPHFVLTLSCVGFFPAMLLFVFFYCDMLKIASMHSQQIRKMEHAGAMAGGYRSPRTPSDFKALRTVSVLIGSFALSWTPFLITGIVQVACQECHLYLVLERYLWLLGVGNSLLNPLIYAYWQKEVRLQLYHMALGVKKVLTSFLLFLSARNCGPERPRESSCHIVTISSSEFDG
Assay: Measurement of GPR119 signaling using LANCE 384-well cAMP kit (LCMP assay)
Format: cell-based
Details: HEK293 cells stably transfected with human GPR119
Summary of the method: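 HEK293 cells stably expressing human GPR119, in stimulation buffer at pH 7.4 with 100 μM phosphodiesterase inhibitors, exposed to a 10-point compound dilution (2.5% DMSO final) for 45 min. cAMP measured by LANCE TR-FRET at 665 nm against a cAMP standard curve, normalized between DMSO basal and an internal agonist maximum, with a 4-parameter fit.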

CC(C)c1noc(N2CCC([C@@H]3C[C@H]3CCOc3ccc(CC(=O)N(C)C)c(F)c3)CC2)n1 [Example 76, 2-(2-fluoro-4-(2-((1S,2S)-2-(1-(3-isopropyl-1,2,4-oxadiazol-5-yl)piperidin-4-yl)cyclopropyl)ethoxy)phenyl)-N,N-dimethylacetamide]
EC50: 6.3 nM

CC(C)c1noc(N2CCC([C@@H]3C[C@H]3CCOc3cc(F)c(CC(=O)N(C)C)c(F)c3)CC2)n1 [Example 77, 2-(2,6-difluoro-4-(2-((1S,2S)-2-(1-(3-isopropyl-1,2,4-oxadiazol-5-yl)piperidin-4-yl)cyclopropyl)ethoxy)phenyl)-N,N-dimethylacetamide]
EC50: 0.79 nM

COCc1noc(N2CCC([C@@H]3C[C@H]3CCOc3cc(F)c(CC(=O)N(C)C)c(F)c3)CC2)n1 [Example 78, 2-(2,6-difluoro-4-(2-((1S,2S)-2-(1-(3-(methoxymethyl)-1,2,4-oxadiazol-5-yl)piperidin-4-yl)cyclopropyl)ethoxy)phenyl)-N,N-dimethylacetamide]
EC50: 6.7 nM

CC(C)c1noc(N2CCC([C@H]3C[C@@H]3CCOc3cc(F)c(CC(=O)N4CCC4)c(F)c3)CC2)n1 [Example 79, 1-(azetidin-1-yl)-2-(2,6-difluoro-4-(2-((1R,2R)-2-(1-(3-isopropyl-1,2,4-oxadiazol-5-yl)piperidin-4-yl)cyclopropyl)ethoxy)phenyl)ethanone]
EC50: 0.55 nM

COCc1noc(N2CCC([C@H]3C[C@@H]3CCOc3cc(F)c(CC(=O)N4CCC4)c(F)c3)CC2)n1 [Example 80, 1-(azetidin-1-yl)-2-(2,6-difluoro-4-(2-((1R,2R)-2-(1-(3-(methoxymethyl)-1,2,4-oxadiazol-5-yl)piperidin-4-yl)cyclopropyl)ethoxy)phenyl)ethanone]
EC50: 2.4 nM

CC(C)c1noc(N2CCC([C@H]3C[C@@H]3CCOc3cc(F)c(CC(=O)N(C)C)c(F)c3)CC2)n1 [Example 81, 2-(2,6-difluoro-4-(2-((1R,2R)-2-(1-(3-isopropyl-1,2,4-oxadiazol-5-yl)piperidin-4-yl)cyclopropyl)ethoxy)phenyl)-N,N-dimethylacetamide]
EC50: 0.67 nM

CC(C)c1noc(N2CCC([C@@H]3C[C@H]3CCOc3cc(F)c(CC(=O)N4CCC4)c(F)c3)CC2)n1 [Example 82, 1-(azetidin-1-yl)-2-(2,6-difluoro-4-(2-((1S,2S)-2-(1-(3-isopropyl-1,2,4-oxadiazol-5-yl)piperidin-4-yl)cyclopropyl)ethoxy)phenyl)ethanone]
EC50: 0.51 nM

COCc1noc(N2CCC([C@@H]3C[C@H]3CCOc3cc(F)c(CC(=O)N4CCC4)c(F)c3)CC2)n1 [Example 83, 1-(azetidin-1-yl)-2-(2,6-difluoro-4-(2-((1S,2S)-2-(1-(3-(methoxymethyl)-1,2,4-oxadiazol-5-yl)piperidin-4-yl)cyclopropyl)ethoxy)phenyl)ethanone]
EC50: 5.2 nM

COCc1noc(N2CCC([C@H]3C[C@@H]3CCOc3cc(F)c(CC(=O)N(C)C)c(F)c3)CC2)n1 [Example 84, 2-(2,6-difluoro-4-(2-((1R,2R)-2-(1-(3-(methoxymethyl)-1,2,4-oxadiazol-5-yl)piperidin-4-yl)cyclopropyl)ethoxy)phenyl)-N,N-dimethylacetamide]
EC50: 3 nM

CC(C)c1noc(N2CCC([C@H]3C[C@@H]3CCOc3ccc(S(C)(=O)=O)cc3F)CC2)n1 [Example 85, 5-(4-((1R,2R)-2-(2-(2-fluoro-4-(methylsulfonyl)phenoxy)ethyl)cyclopropyl)piperidin-1-yl)-3-isopropyl-1,2,4-oxadiazole]
EC50: 17 nM

CC(C)c1noc(N2CCC([C@H]3C[C@@H]3CCOc3ccc(-n4cnnn4)c(F)c3)CC2)n1 [Example 86, 5-(4-((1R,2R)-2-(2-(3-fluoro-4-(1H-tetrazol-1-yl)phenoxy)ethyl)cyclopropyl)piperidin-1-yl)-3-isopropyl-1,2,4-oxadiazole]
EC50: 13 nM

CC(C)c1noc(N2CCC([C@H]3C[C@@H]3CCOc3ccc(S(C)(=O)=O)c(F)c3)CC2)n1 [Example 87, 5-(4-((1R,2R)-2-(2-(3-fluoro-4-(methylsulfonyl)phenoxy)ethyl)cyclopropyl)piperidin-1-yl)-3-isopropyl-1,2,4-oxadiazole]
EC50: 11 nM
